Results on ten compounds are retold here after patent US5059589A, “Glaucoma treatment” (Abbott Laboratories, priority 1990, dated 1991).

The test system of the assay is intraocular pressure in rabbits. The assay is described as follows: Effects of topically administered renin inhibiting compounds on intraocular pressure of rabbits. It is filed as in vivo, Male albino, New Zealand rabbits. Particulars: topical 0.1 ml, 0.1% (w/v). How it is done: The antiglaucoma activity of the compounds was tested by measuring the effect on intraocular pressure in rabbits as described by Tinjum, A.M., Acta Ophthalmologica, 50, 677 (1972). Male albino, New Zealand rabbits were placed in restraining devices and the intraocular pressure was measured with an applamatic tonometer. Exactly 0.1 ml of an isotonic saline solution containing a test compound was instilled into the conjuctival sac and the intraocular pressure was measured at 5, 15, 30, 60, 90, 120 and 180 minutes afterwards.

Where [1] appears, read: 15 minutes after administration.
Setting [2] is: 30 minutes after administration.
Where [3] appears, read: 60 minutes after administration.
[4] abbreviates: 90 minutes after administration.
[5] abbreviates: 120 minutes after administration.
Setting [6] is: 180 minutes after administration.

Counter-ions that a name gives are not always drawn.

“Boc-Phe-Histidinyl-4-amino-3-hydroxy 5-cyclohexylpentanoic acid amide of 2 methylbutylamine [Compound VII]”: the “Mean Intraocular Pressure in mmHg” value runs as follows: (0 minutes after administration) 19.7 mmHg; (5 minutes after administration) 17.2 mmHg; under setting [1], 13.8 mmHg; under setting [2], 14.3 mmHg; under setting [3], 14.8 mmHg; under setting [4], 19.3 mmHg. The “Mean Intraocular Pressure in mmHg” value turned out to be 21.1 mmHg under setting [5] and 22.7 mmHg under setting [6].
As to `CC(C)(C)OC(=O)NC(Cc1ccccc1)C(=O)NC(Cc1cnc[nH]1)C(=O)N[C@@H](CC1CCCCC1)[C@@H](O)[C@@H](O)CN` (stereo partly drawn) [Compound X, Boc-Phe-His amide (4-amino) of (2S,3R,4S) 1,4-diamino-2,3-dihydroxy-5-cyclohexylpentane], the “Mean Intraocular Pressure in mmHg” value runs as follows: (0 minutes after administration) 20.8 mmHg; (5 minutes after administration) 20.6 mmHg; under setting [1], 20.6 mmHg; under setting [2], 15.9 mmHg; under setting [3], 15.1 mmHg; under setting [4], 19.1 mmHg. The “Mean Intraocular Pressure in mmHg” value worked out at 20.6 mmHg under setting [5] and 21.7 mmHg under setting [6].
In the case of `C=C(C[C@H](O)[C@H](CC1CCCCC1)NC(=O)C(Cc1cnc[nH]1)NC(=O)C(Cc1ccccc1)NC(=O)OC(C)(C)C)C(=O)NCCC(C)C` (stereo partly drawn) [Compound IX, Boc-Phe-His amide of (4S,5S) N-(3-methylbutyl)-5-amino-6-cyclohexyl-1-hexen-4-ol-2-carboxamide], the “Mean Intraocular Pressure in mmHg” value by setting is: (0 minutes after administration) 22.2 mmHg; (5 minutes after administration) 22.5 mmHg; under setting [1], 18.1 mmHg; under setting [2], 15.8 mmHg; under setting [3], 19.5 mmHg; under setting [4], 22.4 mmHg. Moreover, the “Mean Intraocular Pressure in mmHg” value under setting [5] was determined as 24.3 mmHg and the “Mean Intraocular Pressure in mmHg” value under setting [6] was 24.2 mmHg.
As to `CC(C)C[C@H](O)[C@H](O)[C@H](CC1CCCCC1)NC(=O)[C@H](Cc1cnc[nH]1)NC(=O)[C@H](Cc1ccccc1)NC(=O)N1CCOCC1` [Compound I, (4-morpholinyl)carbonyl Phe-His amide of 2(S) amino-1 cyclohexyl-(3R),4(S)dihydroxy-6-methylheptane], the “Mean Intraocular Pressure in mmHg” value reads like this: (0 minutes after administration) 19.0 mmHg; (5 minutes after administration) 18.2 mmHg; under setting [1], 16.5 mmHg; under setting [2], 12.2 mmHg; under setting [3], 13.9 mmHg; under setting [4], 15.1 mmHg. Also, the “Mean Intraocular Pressure in mmHg” value by setting is: under setting [5], 16.8 mmHg; under setting [6], 20.4 mmHg.
Turning to `CC(C)CC(=O)NCC[C@H](O)[C@H](CC1CCCCC1)NC(=O)C(Cc1cnc[nH]1)NC(=O)C(Cc1ccccc1)NC(=O)OC(C)(C)C` (some centres unmarked) [Compound VIII], the “Mean Intraocular Pressure in mmHg” value reads like this: (0 minutes after administration) 19.4 mmHg; (5 minutes after administration) 17.0 mmHg; under setting [1], 16.5 mmHg; under setting [2], 15.4 mmHg; under setting [3], 18.4 mmHg; under setting [4], 21.2 mmHg. For the same compound, the “Mean Intraocular Pressure in mmHg” value under setting [5] is listed as 20.5 mmHg and the “Mean Intraocular Pressure in mmHg” value under setting [6] came out at 21.9 mmHg.
For `CC[C@@H]1C(=O)OC[C@@H]1Cc1cncn1C` [Pilocarpine, reference compound], the “Mean Intraocular Pressure in mmHg” value by setting is: (0 minutes after administration) 17.6 mmHg; (5 minutes after administration) 14.4 mmHg; under setting [1], 13.0 mmHg; under setting [2], 11.9 mmHg; under setting [3], 13.0 mmHg; under setting [4], 12.6 mmHg. For the same compound, the “Mean Intraocular Pressure in mmHg” value is, setting by setting: under setting [5], 16.4 mmHg; under setting [6], 17.7 mmHg.
Regarding `CCOC(=O)[C@H](C)NC(Cc1ccccc1)C(=O)NC(Cc1cnc[nH]1)C(=O)N[C@@H](CC1CCCCC1)[C@@H](O)[C@@H](O)CC(C)C` (stereo partly drawn) [Compound XIV, (1(S)-(Ethoxycarbonyl)-ethyl)-Phe-His amide of 2 (S)-amino 1-cyclohexyl-3(R),4(S)-dihydroxy 6-methylheptane], the “Mean Intraocular Pressure in mmHg” value is 21.0 mmHg (0 minutes after administration); 16.8 mmHg (5 minutes after administration); 14.0 mmHg under setting [1]; 15.1 mmHg under setting [2]; 14.6 mmHg under setting [3]; 16.4 mmHg under setting [4]. Further, the “Mean Intraocular Pressure in mmHg” value runs as follows: under setting [5], 17.9 mmHg; under setting [6], 19.6 mmHg.
`CC(C)C[C@H](O)[C@H](O)[C@H](CC1CCCCC1)NC(=O)[C@H](Cc1cnc[nH]1)NC(=O)[C@H](Cc1ccccc1)NC(=O)N1CCC(O)CC1` [Compound III, (1-(4 hydroxypiperidinyl)carbonyl)-Phe-His amide of 2(S)-amino 1-cyclohexyl-3(R),4(S) dihydroxy 6-methylheptane]: the “Mean Intraocular Pressure in mmHg” value is, setting by setting: (0 minutes after administration) 19.1 mmHg; (5 minutes after administration) 15.5 mmHg; under setting [1], 12.4 mmHg; under setting [2], 13.9 mmHg; under setting [3], 14.9 mmHg; under setting [4], 16.3 mmHg. For the same compound, the “Mean Intraocular Pressure in mmHg” value is 17.8 mmHg under setting [5] and 18.2 mmHg under setting [6].
Consider “Boc-Phe-His amide of (2S,4S,1'R,2'S)-2-(2-amino-7-cyclohexyl-4,5-dihydroxyheptan-2-oic acid sodium salt [Compound XI]”, for which the “Mean Intraocular Pressure in mmHg” value is, setting by setting: (0 minutes after administration) 18.5 mmHg; (5 minutes after administration) 13.4 mmHg; under setting [1], 11.4 mmHg; under setting [2], 10.6 mmHg; under setting [3], 14.6 mmHg; under setting [4], 16.1 mmHg. Also, the “Mean Intraocular Pressure in mmHg” value came to 15.7 mmHg under setting [5] and 19.0 mmHg under setting [6].
As for `COc1ccc(C[C@H](NC(=O)CC(C)(C)N)C(=O)N[C@@H](Cc2cnc[nH]2)C(=O)N[C@@H](CC2CCCCC2)[C@@H](O)[C@@H](O)CC(C)C)cc1` [Compound II, H-((beta,betadimethyl)-beta-Ala)-(4 OCH3)Phe-His amide of 2(S)-amino-1-cyclohexyl-3(R),4(S) dihydroxy-6-methylheptane di-acetic acid salt], the “Mean Intraocular Pressure in mmHg” value runs as follows: (0 minutes after administration) 18.4 mmHg; (5 minutes after administration) 15.0 mmHg; under setting [1], 13.5 mmHg; under setting [2], 13.2 mmHg; under setting [3], 13.4 mmHg; under setting [4], 17.1 mmHg. Further, the “Mean Intraocular Pressure in mmHg” value runs as follows: under setting [5], 19.0 mmHg; under setting [6], 17.2 mmHg.
